Experimental data published in ChEMBL document CHEMBL4732105, “First orally bioavailable prodrug of proteolysis targeting chimera (PROTAC) degrades cyclin-dependent kinases 2/4/6 in vivo” (Eur J Med Chem, 2021).
The source made the active and inactive calls. The rule behind the calls is not given here.

How the values were obtained:
[1] = target: Protein cereblon/Cyclin-dependent kinase 4 (Mus musculus) (UniProt P30285+Q8C7D2); assay: Protac activity at CRBN/CDK4 in mouse B16F10 cells assessed as induction of CDK4 protein degradation at 100 nM for 6 hrsin presence of Ribociclib by Western blot analysis; type: cell-based; conditions: B16-F10, time 6.0 hrs
Chain of Protein cereblon/Cyclin-dependent kinase 4 (Mus musculus) (P30285 whole entry, looked up): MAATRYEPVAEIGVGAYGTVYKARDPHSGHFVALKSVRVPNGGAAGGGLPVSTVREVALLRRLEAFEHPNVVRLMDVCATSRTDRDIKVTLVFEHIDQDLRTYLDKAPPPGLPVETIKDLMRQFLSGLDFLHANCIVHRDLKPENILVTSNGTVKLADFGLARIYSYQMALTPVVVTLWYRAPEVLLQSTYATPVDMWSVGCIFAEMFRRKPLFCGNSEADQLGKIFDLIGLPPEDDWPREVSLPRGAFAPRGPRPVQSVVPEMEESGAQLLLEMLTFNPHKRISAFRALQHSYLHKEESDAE
Chain of Protein cereblon/Cyclin-dependent kinase 4 (Mus musculus) (Q8C7D2 whole entry, looked up): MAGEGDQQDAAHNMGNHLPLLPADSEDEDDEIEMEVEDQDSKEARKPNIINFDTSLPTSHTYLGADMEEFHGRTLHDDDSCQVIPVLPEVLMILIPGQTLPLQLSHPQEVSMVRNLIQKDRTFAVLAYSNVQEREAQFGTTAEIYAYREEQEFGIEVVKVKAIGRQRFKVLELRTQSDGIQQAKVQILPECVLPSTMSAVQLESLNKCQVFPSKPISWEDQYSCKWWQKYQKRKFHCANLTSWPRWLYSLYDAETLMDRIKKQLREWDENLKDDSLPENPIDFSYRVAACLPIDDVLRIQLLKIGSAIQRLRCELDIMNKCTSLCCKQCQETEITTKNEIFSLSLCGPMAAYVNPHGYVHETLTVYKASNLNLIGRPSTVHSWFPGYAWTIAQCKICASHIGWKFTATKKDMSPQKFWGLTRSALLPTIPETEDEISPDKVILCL

B16-F10 = assay: Induction of apoptosis in mouse B16F10 cells assessed as necrotic cells at 250 nM incubated for 48 hrs by Annexin V-FITC/PI staining based flow cytometry (reference value: 0.21%); type: functional

CN(C)C(=O)c1cc2cnc(Nc3ccc(C(=O)NCCCCCCNc4cccc5c4C(=O)N(C4CCC(=O)NC4=O)C5=O)cc3)nc2n1C1CCCC1 (configuration not stated)
Activity [1]: inactive | Activity (B16-F10): 0.14%
